Laboratory results: US10155769B2, “Fused azaheterocyclic compounds and their use as AMPA receptor modulators” (Janssen Pharmaceutica NV, priority 2016, dated 2018)

These compounds were tested against GluA1o-γ8 (Homo sapiens (Human), UniProt P42261+Q8WXS5) (assay: Calcium flux assay (FLIPR), inhibition of TARP γ8 dependent AMPA receptor activity). Conditions: HEK293 cells stably expressing GRIA1o-CACNG8 fusion construct; calcium flux following 15 μM glutamate; negative log of IC50 in molar.
Format: cell-based
Description: This assay was used to test compounds for their ability to inhibit TARP γ8 dependent AMPA receptor activity. The AMPA receptor is a non-selective cation channel activated by glutamate. Ionotropic glutamate receptors normally desensitize too rapidly to allow detectable calcium influx in a FLIPR assay (Strange et al. (2006). “Functional characterisation of homomeric ionotropic glutamate receptors GluR1-GluR6 in a fluorescence-based high throughput screening assay.” Comb Chem High Throughput Screen 9(2): 147-158). But, this desensitization is incomplete, and a substantial steady-state current remains in the sustained presence of glutamate (Cho et al. (2007). “Two families of TARP isoforms that have distinct effects on the kinetic properties of AMPA receptors and synaptic currents.” Neuron 55(6): 890-904).
An in vitro assay was used to determine the potency of test compounds as inhibitors of the glutamate response of the channel formed by GluA1o-γ8. To ensure a 1:1 stoichiometry of GluA1o and γ8 subunits in the expressed channel, a fusion of the cDNAs for GRIA1o and CACNG8 was used. Following Shi et al (2009) “The stoichiometry of AMPA receptors and TARPs varies by neuronal cell type.” Neuron 62(5): 633-640), the C-terminus of the cDNA for GRIA1o was fused to the N-terminus of the cDNA for γ8. The linker sequence was QQQQQQQQQQEFAT. Channels expressed with this construct appear to have similar properties to channels formed by co-expression of GRIA1o with an excess of CACNG8 (Shi et al. 2009). A clonal cell line in HEK293 cells stably expressing this construct, with a geneticin selection marker, was generated for use in this assay.
Cell expressing the GRIA1o-CACNG8 fusion construct were grown in a monolayer in 96- or 384-well microtiter plates. They were washed with assay buffer (135 mM NaCl, 4 mM KCl, 3 mM CaCl2, 1 mM MgCl2, 5 mM glucose, 10 mM HEPES, pH 7.4, 300 mOs) using a Biotek EL405 plate washer. The cells were then loaded with a calcium-sensitive dye (Calcium-5 or Calcium-6, Molecular Devices) and the test compounds at a range of concentrations. Calcium flux following the addition of 15 μM glutamate was monitored using a Molecular Devices FLIPR Tetra.
The fluorescence in each well was normalized to the fluorescence of negative and positive control wells. The negative control wells had no added compounds, and the positive control wells had been incubated with 10 μM CP465022 (a non-subtype-selective AMPA receptor antagonist) (Lazzaro et al. (2002). “Functional characterization of CP-465,022, a selective, noncompetitive AMPA receptor antagonist.” Neuropharmacology 42(2): 143-153). The responses to glutamate as functions of the test compound concentrations were fitted to a four-parameter logistic function. The fitted parameter corresponding to the midpoint was taken to be the potency of inhibition of the compound. The data in Table 4 below illustrates the observed potency for the compounds described herein. pIC50 refers to the negative log of the IC50 in molar.

Chain of GluA1o-γ8 (P42261 other isoform, or with tags, fused parts or gaps): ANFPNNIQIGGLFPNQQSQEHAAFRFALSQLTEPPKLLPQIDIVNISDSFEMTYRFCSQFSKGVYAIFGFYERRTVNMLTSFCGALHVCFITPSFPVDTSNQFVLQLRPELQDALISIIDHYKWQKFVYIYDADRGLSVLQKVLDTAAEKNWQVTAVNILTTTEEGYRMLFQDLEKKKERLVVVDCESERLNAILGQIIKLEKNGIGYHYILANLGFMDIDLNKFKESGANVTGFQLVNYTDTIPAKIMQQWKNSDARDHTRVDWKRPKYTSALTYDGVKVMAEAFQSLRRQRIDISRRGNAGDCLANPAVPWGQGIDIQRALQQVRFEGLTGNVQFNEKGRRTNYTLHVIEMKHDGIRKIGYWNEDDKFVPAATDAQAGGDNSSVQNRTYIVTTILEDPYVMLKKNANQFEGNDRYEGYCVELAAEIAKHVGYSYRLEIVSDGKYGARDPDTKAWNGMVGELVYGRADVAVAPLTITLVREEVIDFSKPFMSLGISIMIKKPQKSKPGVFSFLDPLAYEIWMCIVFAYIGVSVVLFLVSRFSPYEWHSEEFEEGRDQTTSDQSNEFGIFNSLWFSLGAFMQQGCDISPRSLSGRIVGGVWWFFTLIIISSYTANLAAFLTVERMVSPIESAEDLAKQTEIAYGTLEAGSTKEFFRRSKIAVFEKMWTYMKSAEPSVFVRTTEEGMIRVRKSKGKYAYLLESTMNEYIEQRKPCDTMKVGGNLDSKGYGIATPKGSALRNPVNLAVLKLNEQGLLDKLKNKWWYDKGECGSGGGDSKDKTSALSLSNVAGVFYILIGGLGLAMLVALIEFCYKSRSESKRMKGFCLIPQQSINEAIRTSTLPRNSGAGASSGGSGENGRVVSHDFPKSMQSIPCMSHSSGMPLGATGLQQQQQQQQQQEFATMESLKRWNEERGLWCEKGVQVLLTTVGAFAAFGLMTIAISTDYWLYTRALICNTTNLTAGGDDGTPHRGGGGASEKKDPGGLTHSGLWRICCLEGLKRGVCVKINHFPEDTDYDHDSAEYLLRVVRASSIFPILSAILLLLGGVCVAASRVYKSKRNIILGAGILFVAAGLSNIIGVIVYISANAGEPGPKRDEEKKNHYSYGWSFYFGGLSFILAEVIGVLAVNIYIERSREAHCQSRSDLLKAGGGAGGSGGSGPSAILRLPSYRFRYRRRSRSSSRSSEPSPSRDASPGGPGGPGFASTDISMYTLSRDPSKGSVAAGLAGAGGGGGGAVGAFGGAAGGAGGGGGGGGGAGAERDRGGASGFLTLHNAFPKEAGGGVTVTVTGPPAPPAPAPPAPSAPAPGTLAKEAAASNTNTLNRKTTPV

`FC(F)(F)c1cn2ccc(C(F)(F)F)c(-c3ccc4[nH]ncc4c3)c2n1` [Example 61, 5-(2,7-Bis(trifluoromethyl)imidazo[1,2-a]pyridin-8-yl)-1H-indazole] was tested. Which pIC50 did it give?
The pIC50 was 7.5.

Which pIC50 does the source give for `Cc1cc(-c2c(C(F)(F)F)ccn3cc(C(F)(F)F)nc23)cc2cn[nH]c12` [Example 62, 5-(2,7-Bis(trifluoromethyl)imidazo[1,2-a]pyridin-8-yl)-7-methyl-1H-indazole] here?
Its pIC50 is 9.5.

How did the pIC50 turn out when `Cc1cc(-c2c(C(F)(F)F)ncn3cc(C(F)(F)F)nc23)cc2cn[nH]c12` [Example 63, 8-(7-Methyl-1H-indazol-5-yl)-2,7-bis(trifluoromethyl)imidazo[1,2-c]pyrimidine] was run?
Its pIC50 is 8.9.

How did the pIC50 turn out when `CCc1cn2cnc(C(F)(F)F)c(-c3cc(Cl)c4[nH]ncc4c3)c2n1` [Example 64, 8-(7-Chloro-1H-indazol-5-yl)-2-ethyl-7-(trifluoromethyl)imidazo[1,2-c]pyrimidine] was run?
Its pIC50 is 9.3.

With `CCc1cn2cnc(C(F)(F)F)c(-c3cc(C)c4[nH]ncc4c3)c2n1` [Example 65, 2-Ethyl-8-(7-methyl-1H-indazol-5-yl)-7-(trifluoromethyl)imidazo[1,2-c]pyrimidine] as the compound, how does the pIC50 read?
The pIC50 was 8.8.

`CC(C)c1cn2cnc(C(F)(F)F)c(-c3cc(Cl)c4[nH]ncc4c3)c2n1` [Example 66, 8-(7-Chloro-1H-indazol-5-yl)-2-isopropyl-7-(trifluoromethyl)imidazo[1,2-c]pyrimidine] was tested. Which pIC50 did it give?
The pIC50 was 10.0.

`FC(F)(F)c1ncn2cc(C3CC3)nc2c1-c1cc(Cl)c2[nH]ncc2c1` [Example 67, 8-(7-Chloro-1H-indazol-5-yl)-2-cyclopropyl-7-(trifluoromethyl)imidazo[1,2-c]pyrimidine] was tested. Which pIC50 did it give?
Its pIC50 is 9.9.

Which pIC50 does the source give for `Cc1cc(-c2c(C(F)(F)F)ncn3cc(C4CC4)nc23)cc2cn[nH]c12` [Example 68, 2-Cyclopropyl-8-(7-methyl-1H-indazol-5-yl)-7-(trifluoromethyl)imidazo[1,2-c]pyrimidine] here?
The pIC50 was 9.6.

For `O=C1Cc2cc(-c3c(C(F)(F)F)ncn4cc(C5CC5)nc34)cc(Cl)c2N1` [Example 69, 7-Chloro-5-[2-cyclopropyl-7-(trifluoromethyl)imidazo[1,2-c]pyrimidin-8-yl]indolin-2-one], which pIC50 is on record?
Its pIC50 is 9.5.

With `O=C1Cc2cc(-c3c(C(F)(F)F)ncn4cc(C5CC5)nc34)cc(F)c2N1` [Example 70, 5-[2-Cyclopropyl-7-(trifluoromethyl)imidazo[1,2-c]pyrimidin-8-yl]-7-fluoro-indolin-2-one] as the compound, how does the pIC50 read?
Its pIC50 is 5.3.

For `CC(C)c1ncn2cc(C(F)(F)F)nc2c1-c1cc(Cl)c2[nH]ncc2c1` [Example 71, 8-(7-Chloro-1H-indazol-5-yl)-7-isopropyl-2-(trifluoromethyl)imidazo[1,2-c]pyrimidine], which pIC50 is on record?
Its pIC50 is 9.8.

How did the pIC50 turn out when `CC(C)c1ncn2cc(C(F)F)nc2c1-c1cc(Cl)c2[nH]ncc2c1` [Example 72, 8-(7-Chloro-1H-indazol-5-yl)-2-(difluoromethyl)-7-isopropyl-imidazo[1,2-c]pyrimidine] was run?
Its pIC50 is 9.5.

`CCc1ncn2cc(C(F)(F)F)nc2c1-c1cc(Cl)c2[nH]ncc2c1` [Example 73, 8-(7-Chloro-1H-indazol-5-yl)-7-ethyl-2-(trifluoromethyl)imidazo[1,2-c]pyrimidine] was tested. Which pIC50 did it give?
Its pIC50 is 9.1.

How did the pIC50 turn out when `CCc1ncn2cc(C(F)(F)F)nc2c1-c1cc(C)c2[nH]ncc2c1` [Example 74, 7-Ethyl-8-(7-methyl-1H-indazol-5-yl)-2-(trifluoromethyl)imidazo[1,2-c]pyrimidine] was run?
The pIC50 was 8.7.

How did the pIC50 turn out when `CCc1ncn2cc(C(F)F)nc2c1-c1cc(Cl)c2[nH]ncc2c1` [Example 75, 8-(7-Chloro-1H-indazol-5-yl)-2-(difluoromethyl)-7-ethyl-imidazo[1,2-c]pyrimidine] was run?
Its pIC50 is 8.9.

For `Cc1ncn2cc(C(F)(F)F)nc2c1-c1cc(Cl)c2[nH]ncc2c1` [Example 76, 8-(7-Chloro-1H-indazol-5-yl)-7-methyl-2-(trifluoromethyl)imidazo[1,2-c]pyrimidine], which pIC50 is on record?
The pIC50 was 8.5.

Which pIC50 does the source give for `FC(F)(F)c1cn2cnc(C3CC3)c(-c3cc(Cl)c4[nH]ncc4c3)c2n1` [Example 77, 8-(7-Chloro-1H-indazol-5-yl)-7-cyclopropyl-2-(trifluoromethyl)imidazo[1,2-c]pyrimidine] here?
The pIC50 was 9.0.

`FC(F)c1cn2cnc(C3CC3)c(-c3cc(Cl)c4[nH]ncc4c3)c2n1` [Example 78, 8-(7-Chloro-1H-indazol-5-yl)-7-cyclopropyl-2-(difluoromethyl)imidazo[1,2-c]pyrimidine] was tested. Which pIC50 did it give?
Its pIC50 is 8.6.

How did the pIC50 turn out when `Cc1nc(C2CC2)c(-c2cc(Cl)c3[nH]ncc3c2)c2nc(C(F)(F)F)cn12` [Example 79] was run?
The pIC50 was 8.9.

With `Cc1nc(C2CC2)c(-c2cc(Cl)c3[nH]ncc3c2)c2nc(C(F)F)cn12` [Example 80, 8-(7-Chloro-1H-indazol-5-yl)-7-cyclopropyl-2-(difluoromethyl)-5-methyl-imidazo[1,2-c]pyrimidine] as the compound, how does the pIC50 read?
The pIC50 was 9.2.

How did the pIC50 turn out when `FC(F)(F)c1ncn2c(Cl)c(C3CC3)nc2c1-c1cc(Cl)c2[nH]ncc2c1` [Example 81, 3-Chloro-8-(7-chloro-1H-indazol-5-yl)-2-cyclopropyl-7-(trifluoromethyl)imidazo[1,2-c]pyrimidine] was run?
Its pIC50 is 9.9.

`Fc1c(C2CC2)nc2c(-c3cc(Cl)c4[nH]ncc4c3)c(C(F)(F)F)ncn12` [Example 82, 8-(7-Chloro-1H-indazol-5-yl)-2-cyclopropyl-3-fluoro-7-(trifluoromethyl)imidazo[1,2-c]pyrimidine] was tested. Which pIC50 did it give?
Its pIC50 is 9.5.

How did the pIC50 turn out when `O=C1Cc2cc(-c3c(C(F)(F)F)ccn4cc(C(F)(F)F)nc34)cc(Cl)c2N1` [Example 86, 5-(2,7-Bis(trifluoromethyl)imidazo[1,2-a]pyridin-8-yl)-7-chloroindolin-2-one] was run?
The pIC50 was 9.8.

How did the pIC50 turn out when `Cc1cc(-c2c(C(F)(F)F)ccn3cc(C(F)(F)F)nc23)cc2c1NC(=O)C2` [Example 87, 5-(2,7-Bis(trifluoromethyl)imidazo[1,2-a]pyridin-8-yl)-7-methylindolin-2-one] was run?
Its pIC50 is 9.4.

Which pIC50 does the source give for `FC(F)(F)c1cn2ccc(C(F)(F)F)c(-c3cc(Cl)c4[nH]ncc4c3)c2n1` [Example 88, 5-(2,7-Bis(trifluoromethyl)imidazo[1,2-a]pyridin-8-yl)-7-chloro-1H-indazole] here?
Its pIC50 is 10.3.

How did the pIC50 turn out when `CC(C)c1cn2ccc(C(F)(F)F)c(-c3cc(Cl)c4[nH]ncc4c3)c2n1` [Example 89, 8-(7-Chloro-1H-indazol-5-yl)-2-isopropyl-7-(trifluoromethyl)imidazo[1,2-a]pyridine] was run?
Its pIC50 is 10.6.

For `Cc1cc(-c2c(C(F)(F)F)ccn3cc(C4CC4)nc23)cc2cn[nH]c12` [Example 91, 2-Cyclopropyl-8-(7-methyl-1H-indazol-5-yl)-7-(trifluoromethyl)imidazo[1,2-a]pyridine], which pIC50 is on record?
Its pIC50 is 9.6.

`CCc1cn2ccc(C(F)(F)F)c(-c3cc(C)c4[nH]ncc4c3)c2n1` [Example 92, 2-Ethyl-8-(7-methyl-1H-indazol-5-yl)-7-(trifluoromethyl)imidazo[1,2-a]pyridine] was tested. Which pIC50 did it give?
The pIC50 was 9.4.

With `Cc1cc(-c2c(C(F)(F)F)ccn3cc(C(F)F)nc23)cc2cn[nH]c12` [Example 93, 2-(Difluoromethyl)-8-(7-methyl-1H-indazol-5-yl)-7-(trifluoromethyl)imidazo[1,2-a]pyridine] as the compound, how does the pIC50 read?
Its pIC50 is 9.3.

With `Cc1cn2ccc(C(F)(F)F)c(-c3cc(C)c4[nH]ncc4c3)c2n1` [Example 94, 2-Methyl-8-(7-methyl-1H-indazol-5-yl)-7-(trifluoromethyl)imidazo[1,2-a]pyridine] as the compound, how does the pIC50 read?
The pIC50 was 8.1.
